The numbers were not newly measured in patent US20220228277A1, “COMPACT GENERATOR FOR GENERATING STERILIZING MATERIALS” (priority 2021, published 2022), which cites them from elsewhere.

For series [1] the following is noted: in a year.
For series [2] the following is noted: environment dependent.
For series [3] the following is noted: 20° C. water; also printed as 29.9 ppm.

Regarding `OO` [H2O2, hydrogen peroxide], the “decay of sealed H2O2-H2O solution” value in series [1] is 10%.

Consider `O=[O+][O-]` [O3, ozone], for which the “natural life of O3 (turns into O2)” value in series [2] is 20 to 30 min. In series [3], the “solubility of O3 in water” value is 29.9 µg/mL.
